The test relates to Plasmodium berghei. As to the kind of experiment: Luciferase/luciferin-expressing antifolate-resistant parasites were used to infect a culture of HepG2 cells that were pre-incubated with compounds. Infected hepatocytes emit light due to the luciferase reaction. Assay results are presented as the percent inhibition of light emission compared to control. […]. The format is functional. The following applies: sporozoite; for IC90: read-out: LUCIFERASE INFECTION ASSAY - IC90.

Setting [1] is: read-out: LUCIFERASE INFECTION ASSAY - IC50.

The text below walks through data of ChEMBL document CHEMBL4483862, “Open-source discovery of chemical leads for next-generation chemoprotective antimalarials” (2018).

Turning to `CCCCc1ccc(NC(=O)c2cc(OC)c(OC)c(OC)c2)cc1`, the IC90 was greater than 9.61 µM. Under setting [1], the IC50 was greater than 9.61 µM.

With `O=c1[nH]c2ccccc2c(O)c1F`, the concentration for an effect of 90% (IC90) is 2.92 µM. Moreover, the IC50 (PBLUC_HILL_SLOPE 2.84, PBLUC_R_SQUARED 0.833, read-out: LUCIFERASE INFECTION ASSAY - IC50) was found to be 1.35 µM.

On to `Cc1cc(C(=O)CSc2nc3ccccc3s2)c(C)n1CC1CCCO1` (stereo not given), for which the 90% effect concentration (IC90) was greater than 10 µM. Moreover, the IC50 under setting [1] is greater than 10 µM.

Regarding `CC(=O)c1cccc(-c2cnc3ccc(-c4ccc5c(c4)OCO5)nn23)c1`, the IC90 came to 7.88 µM. Where the note is “HEPG2TOX_HILL_SLOPE 1.55, HEPG2TOX_R_SQUARED 0.983, PBLUC_HILL_SLOPE 1.3, PBLUC_R_SQUARED 0.851, read-out: LUCIFERASE INFECTION ASSAY - IC50”, the IC50 amounted to 1.46 µM.

For the compound `Cn1nc(-c2ccc(C(=O)Nc3ccccc3)s2)cc1C(F)(F)F`, the concentration for an effect of 90% (IC90) came out at 8.54 µM. Moreover, the concentration for half-maximal inhibition (IC50) (HEPG2TOX_HILL_SLOPE 17.1, HEPG2TOX_R_SQUARED 0.873, PBLUC_HILL_SLOPE 3.01, PBLUC_R_SQUARED 0.475, read-out: LUCIFERASE INFECTION ASSAY - IC50) came to 4.12 µM.

Turning to `O=C(Nc1ccc(SC(F)(F)F)cc1)Nc1cccnc1N1CCC(C(F)(F)F)CC1`, the IC90 was found to be 2.33 µM. Also, where the note is “HEPG2TOX_HILL_SLOPE 11.5, HEPG2TOX_R_SQUARED 0.688, PBLUC_HILL_SLOPE 15.9, PBLUC_R_SQUARED 0.276, read-out: LUCIFERASE INFECTION ASSAY - IC50”, the IC50 was determined as 2.03 µM.

For the compound `NS(=O)(=O)c1ccc(CNC(=O)Cn2cnc3ccccc3c2=O)cc1`, the IC90 is greater than 8.86 µM. For the same compound, the IC50 (PBLUC_HILL_SLOPE 11.1, PBLUC_R_SQUARED 0.12, read-out: LUCIFERASE INFECTION ASSAY - IC50) was greater than 8.86 µM.

In the case of `CN1CCN(S(=O)(=O)c2cc(C(=O)NCc3ccccc3F)cc(-c3ccccc3)c2)CC1`, the 90% effect concentration (IC90) is greater than 7.06 µM. The half-maximal inhibitory concentration (IC50) under setting [1] worked out at 6.09 µM.

Consider `CC(C)c1ccc(-c2cnc3sc(NC4CCC(O)CC4)nn23)cc1` (stereo not given), for which the IC90 was greater than 9.26 µM. The IC50 (PBLUC_HILL_SLOPE 11.9, PBLUC_R_SQUARED 0.449, read-out: LUCIFERASE INFECTION ASSAY - IC50) is 8.25 µM.

As to `Cc1cc(CN2CCc3ccccc3C2)c(C)cc1O`, the IC90 was greater than 10 µM. In addition, the IC50 (HEPG2TOX_HILL_SLOPE 17.5, HEPG2TOX_R_SQUARED 0.797, read-out: LUCIFERASE INFECTION ASSAY - IC50) is greater than 10 µM.

As to `COCOc1ccc(-c2cc(-c3ccc(C(N)=O)cc3)cnc2N)cc1`, the concentration for an effect of 90% (IC90) came to 3.43 µM. The IC50 (PBLUC_HILL_SLOPE 15.5, PBLUC_R_SQUARED 0.616, read-out: LUCIFERASE INFECTION ASSAY - IC50) was 2.98 µM.

In the case of `c1ccc2c(c1)oc1c(-c3ccc4nccn4c3)cccc12`, the IC90 is greater than 11.6 µM. The half-inhibitory concentration (IC50) (HEPG2TOX_HILL_SLOPE 5.27, HEPG2TOX_R_SQUARED 0.667, PBLUC_HILL_SLOPE 2.08, PBLUC_R_SQUARED 0.703, read-out: LUCIFERASE INFECTION ASSAY - IC50) stood at 4.57 µM.

Regarding `C/C(=N\NC(=O)c1sc2ccccc2c1Cl)c1ccc(C(C)(C)C)cc1`, the IC90 was greater than 10 µM. Further, the half-maximal inhibitory concentration (IC50) (PBLUC_HILL_SLOPE 2.25, PBLUC_R_SQUARED 0.703, read-out: LUCIFERASE INFECTION ASSAY - IC50) is 4.74 µM.

In the case of `C=CCN(c1ccccc1OC)S(=O)(=O)c1cccc(C(=O)Oc2c(Cl)cc(Cl)c3ccc(C)nc23)c1`, the IC90 stood at 6.11 µM. The IC50 (PBLUC_HILL_SLOPE 68.6, PBLUC_R_SQUARED 0.538, read-out: LUCIFERASE INFECTION ASSAY - IC50) was determined as 5.92 µM.

For `CC1CCc2sc(C(=O)Nc3cccc4c3C(=O)NC4)cc2C1` (stereo not given), the IC90 came out at 4.22 µM. Besides, the IC50 under setting [1] amounted to 3.61 µM.

As to `Cn1c(Cc2ccccc2)ns/c1=N\C(=Nc1ccccc1)c1ccccc1`, the concentration for an effect of 90% (IC90) was greater than 10 µM. Moreover, the IC50 under setting [1] is greater than 10 µM.

`CN(C)CCNC(=O)c1ccc(-c2cc(-c3cc(F)c(F)c(F)c3)cnc2N)cc1`: the concentration for an effect of 90% (IC90) was greater than 7.96 µM. Besides, under “PBLUC_HILL_SLOPE 12.1, PBLUC_R_SQUARED 0.329, read-out: LUCIFERASE INFECTION ASSAY - IC50”, the IC50 was found to be 7.43 µM.

As to `O=S(=O)(Cc1cc(N2CCN(c3ccccc3)CC2)nc(-c2ccccn2)n1)c1ccccc1`, the 90% effect concentration (IC90) is greater than 7 µM. Besides, the 50% inhibitory concentration (IC50) under setting [1] is greater than 7 µM.

For `O=C(Nc1ccc(Cl)c(C(F)(F)F)c1)c1[nH]nc2ccccc12`, the 90% effect concentration (IC90) is greater than 10 µM. Under setting [1], the IC50 was greater than 10 µM.

Turning to `Clc1nc(NCc2ccc3c(c2)OCO3)c2[nH]cnc2n1`, the concentration for an effect of 90% (IC90) was greater than 10.9 µM. Where the note is “PBLUC_HILL_SLOPE 2.33, PBLUC_R_SQUARED 0.359, read-out: LUCIFERASE INFECTION ASSAY - IC50”, the IC50 stood at 9.8 µM.

With `COc1cccc(-c2nc3ccnc(NCc4ccccc4)c3[nH]2)c1`, the IC90 came out at 7.99 µM. Under “HEPG2TOX_HILL_SLOPE 1.62, HEPG2TOX_R_SQUARED 0.805, PBLUC_HILL_SLOPE 1.55, PBLUC_R_SQUARED 0.567, read-out: LUCIFERASE INFECTION ASSAY - IC50”, the half-inhibitory concentration (IC50) amounted to 1.93 µM.

For `CS(=O)(=O)NCCc1ccc(C(=O)Nc2ncccc2O)cc1`, the concentration for an effect of 90% (IC90) is greater than 10 µM. Besides, where the note is “PBLUC_HILL_SLOPE 2.26, PBLUC_R_SQUARED 0.152, read-out: LUCIFERASE INFECTION ASSAY - IC50”, the IC50 worked out at 6.59 µM.

As for `CC(OC(=O)c1cccc(Cl)c1N)C(=O)N(C(C)C)C(C)C` (stereo not given), the IC90 was greater than 10 µM. Further, the IC50 under setting [1] is greater than 10 µM.

As to `O=C(CN1CCC(NC(=O)c2cn(-c3ccccc3)nc2-c2cccs2)CC1)Nc1ccccc1`, the IC90 was greater than 10 µM. Under setting [1], the half-inhibitory concentration (IC50) is greater than 10 µM.

As to `COc1ccc(C(C)(C)C)cc1NC(=O)COC(=O)c1c(-c2ccccc2)csc1NC(=O)C=C(C)C`, the IC90 amounted to 8.12 µM. Further, the half-maximal inhibitory concentration (IC50) (FFLUC_HILL_SLOPE 1.58, FFLUC_R_SQUARED 0.454, PBLUC_HILL_SLOPE 2.65, PBLUC_R_SQUARED 0.35, read-out: LUCIFERASE INFECTION ASSAY - IC50) was 3.55 µM.

For the compound `CCCCNC(=O)c1c(NC(=O)c2ccccc2F)nc2ccc(C)cn12`, the IC90 came out at 3.54 µM. Under “FFLUC_HILL_SLOPE 17.2, FFLUC_R_SQUARED 0.157, HEPG2TOX_HILL_SLOPE 8.23, HEPG2TOX_R_SQUARED 0.602, PBLUC_HILL_SLOPE 11.7, PBLUC_R_SQUARED 0.726, read-out: LUCIFERASE INFECTION ASSAY - IC50”, the IC50 is 2.94 µM.

Regarding `CN(C)c1ccc(S(=O)(=O)N2CCCCC2)cc1NC(=S)NCc1ccc2c(c1)OCO2`, the concentration for an effect of 90% (IC90) is greater than 10 µM. In addition, under setting [1], the IC50 is greater than 10 µM.

Consider `Cc1nc(NC(=O)c2ccc(C(C)(C)C)cc2)ccc1Br`, for which the IC90 is greater than 9.5 µM. Also, the IC50 (PBLUC_HILL_SLOPE 8.59, PBLUC_R_SQUARED 0.6, read-out: LUCIFERASE INFECTION ASSAY - IC50) was 7.43 µM.

`O=C(c1ccccc1)c1ccc(OCc2coc(-c3ccccc3)n2)cc1`: the IC90 was greater than 10 µM. For the same compound, under setting [1], the 50% inhibitory concentration (IC50) was greater than 10 µM.

For `CN(Cc1ccc(-c2ccc(Cl)cc2)o1)Cc1nnc2n(C)c(=O)c3ccccc3n12`, the IC90 was greater than 10 µM. Also, under setting [1], the half-maximal inhibitory concentration (IC50) was greater than 10 µM.

Regarding `COc1cccc(/C=C/C(=O)NC2CCCc3ccccc32)c1OC(F)F` (stereo not given), the 90% effect concentration (IC90) was greater than 10 µM. Where the note is “PBLUC_HILL_SLOPE 2.15, PBLUC_R_SQUARED 0.14, read-out: LUCIFERASE INFECTION ASSAY - IC50”, the IC50 was greater than 10 µM.

`O=C1NCC(COC(=O)c2ccc3c4c(cccc24)CC3)O1` (stereo not given): the IC90 amounted to 3.64 µM. Besides, the half-inhibitory concentration (IC50) (HEPG2TOX_HILL_SLOPE 2.53, HEPG2TOX_R_SQUARED 0.949, PBLUC_HILL_SLOPE 23.6, PBLUC_R_SQUARED 0.351, read-out: LUCIFERASE INFECTION ASSAY - IC50) amounted to 3.32 µM.

Take `NS(=O)(=O)c1cccc(NC(=O)CCc2ccccc2Cl)c1`: the IC90 was greater than 10 µM. In addition, under setting [1], the 50% inhibitory concentration (IC50) is greater than 10 µM.

On to `COc1ccc(C2=NN=C/C2=N\Nc2ccc(C(F)(F)F)cc2)cc1`, for which the IC90 was determined as 7.39 µM. For the same compound, the concentration for half-maximal inhibition (IC50) (HEPG2TOX_HILL_SLOPE 2.77, HEPG2TOX_R_SQUARED 0.967, PBLUC_HILL_SLOPE 4.55, PBLUC_R_SQUARED 0.276, read-out: LUCIFERASE INFECTION ASSAY - IC50) is 4.56 µM.

Consider `Cc1oc(-n2cccc2)c(C#N)c1C(=O)Nc1ccn(C)n1`, for which the concentration for an effect of 90% (IC90) was greater than 10 µM. Besides, the half-inhibitory concentration (IC50) under setting [1] was greater than 10 µM.

`Cc1ccc(S(=O)(=O)Oc2c(C(C)C)cc(Nc3ccccc3)cc2C(C)C)cc1`: the 90% effect concentration (IC90) was greater than 10 µM. Further, for the setting “HEPG2TOX_HILL_SLOPE 0.494, HEPG2TOX_R_SQUARED 0.437, PBLUC_HILL_SLOPE 0.599, PBLUC_R_SQUARED 0.52, read-out: LUCIFERASE INFECTION ASSAY - IC50”, the 50% inhibitory concentration (IC50) came out at 2.17 µM.

Take `COc1ccc(C(=O)N(c2nc3ccccc3s2)c2c(C)cccc2C)cc1`: the concentration for an effect of 90% (IC90) is greater than 10 µM. Also, where the note is “HEPG2TOX_HILL_SLOPE 1.69, HEPG2TOX_R_SQUARED 0.759, PBLUC_HILL_SLOPE 12.9, PBLUC_R_SQUARED 0.198, read-out: LUCIFERASE INFECTION ASSAY - IC50”, the IC50 was 9.04 µM.

In the case of `O=S(=O)(c1ccc2ccccc2c1)N1CCCC1c1nnc2ccccn12` (stereo not given), the concentration for an effect of 90% (IC90) came to 5.59 µM. In addition, the IC50 (PBLUC_HILL_SLOPE 2.1, PBLUC_R_SQUARED 0.614, read-out: LUCIFERASE INFECTION ASSAY - IC50) worked out at 1.96 µM.

For the compound `COc1cc2c(cc1NC(=O)C(C)N1CCC(C(N)=O)CC1)oc1ccccc12` (stereo not given), the IC90 is greater than 10 µM. Moreover, where the note is “PBLUC_HILL_SLOPE 1.06, PBLUC_R_SQUARED 0.647, read-out: LUCIFERASE INFECTION ASSAY - IC50”, the half-maximal inhibitory concentration (IC50) came out at 1.32 µM.

Regarding `COc1cc(NC(=S)Nc2ccc(Cl)cc2)cc(C(F)(F)F)c1`, the IC90 was greater than 9.15 µM. For the same compound, the IC50 under setting [1] is greater than 9.15 µM.
